Experimental data reported in US8609695B2, “Methods of treating and/or suppressing insulin resistance” (Endorecherche, Inc., priority 1999, dated 2013).
Marks after values point to notes of the source that are not given here.

Columns and labels:
[1] = system: ovariectomized female rats; assay: 34-week treatment with ethynyl estradiol, EM-652.HCl, Raloxifene and DHEA, body fat (Example 7); assay type: in vivo, rat; conditions: OVX rats, 34 weeks; for Fat %: DEXA; for Fat % / Left retroperitoneal adipose tissue / Right retroperitoneal adipose tissue: EE2 0.1, Raloxifene 1, EM-652.HCl 1 mg/kg oral, DHEA 80 mg/kg topical
Procedure: The objective of this study was to assess the effect of a combined treatment with EM-652.HCl, and DHEA on body fat and body weight parameters in ovariectomized rats. For this purpose, ovariectomized rats received daily administration of EM-652.HCl (1 mg/kg), and DHEA (80 mg/kg) alone or in combination, for 34 weeks. EM-652.HCl was administered orally while DHEA was applied topically on dorsal skin. One group of animals was orally treated with 17-ethynylestradiol (0.1 mg/kg) and Raloxifene (EM-1105; 1 mg/kg) for comparison.
Ten to twelve week-old female Sprague-Dawley rats (Crl:CD(SD)Br) weighing approximately 235-250 g at start of treatment were used. Eighty rats were randomly distributed between 7 groups of 11 to 12 animals per group as follows: 1) Intact control; 2) OVX control; 3) OVX+EE2 (0.1 mg/kg); 4) OVX+raloxifene (1 mg/kg); 5) OVX+EM-652.HCl (1 mg/kg); 6) OVX+DHEA (80 mg/kg); 7) OVX+EM-652.HCl+DHEA. On day 1 of the study, the animals of the appropriate groups were bilaterally ovariectomized (OVX) under isoflurane anesthesia. EM-652.HCl, raloxifene and EE2 (Steraloids) were administered once daily by oral gavage as suspension in 0.4% methylcellulose (0.5 ml/rat) for 34 weeks while DHEA was applied topically once daily on dorsal skin as a solution in 50% ethanol-50% propylene glycol (0.5 ml/rat) for the same time period. Approximately 24 hours after the last dosing, overnight fasted animals were killed by exsanguination at the abdominal aorta under isoflurane anesthesia. Left and right retroperitoneal adipose tissues were collected and weighed.
After 34 weeks of treatment, individual rats under anesthesia with isoflurane had their whole body skeleton scanned using dual energy x-ray absorptiometry (DEXA; QDR 4500A, Hologic, Waltham, Mass.) and a Regional High Resolution Scan software. The body composition (including fat percentage) was determined.
Data were expressed as the means±SEM.

[2] = system: ovariectomized female rats; assay: 20-day treatment with EM-652.HCl, estradiol and DHEA, body fat (Example 6); assay type: in vivo, Rattus norvegicus; conditions: OVX rats; for decrease of body fat / decrease of retroperitoneal adipose tissue: 20 days; for Retroperitoneal adipose tissue / Fat %: enriched carbohydrate diet, 20 days oral, EM-652.HCl 0.5, E2 0.5, DHEA 100 mg/rat; for Fat %: DEXA day 21
From the text: d) Diet: Certified Rodent feed (Lab Diet #5002, pellets) and tap water were provided ad libitum during the acclimation period. During the study period, the rats received an enriched carbonhydrate diet ad libitum. The enriched diet (diet #3) was composed of (g/100 g): Corn starch, 31.2; Dextrose, 31.2; Casein, 20.0; Corn oil, 6.4; dl-Methionine, 0.3; Vitamin mix, 1.0; AIN-76 mineral mix, 4.9; Fiber, 5.0.
80 rats were assigned to 8 groups of 10 rats for the conduct of the study outlined below:
On day 0 of the study, rats from groups 2 to 8 were ovariectomized, by bilateral flank incision, under Isoflurane-induced anesthesia. Rats from group 1 were sham-operated.
The administration of the test articles or vehicle began on Day 1 (the day following the ovariectomy). The tested compounds were given as suspensions in 0.4% methylcellulose by oral gavage (0.5 ml/gavage) for 20 days.
On day 21 of the study (prior to the necropsy), body composition was determined on whole body skeleton of animals under Isoflurane-induced anesthesia using dual energy x-ray absorptiometry (DEXA; QDR 4500A, Hologic) in order to determine the effect of treatments on fat percentage.
Right and left retroperitoneal adipose tissue were collected and weighed.

[3] = system: ovariectomized rats; assay: 20-day treatment with EM-652.HCl, body fat, body weight and energy balance (Example 3); assay type: in vivo, rat; conditions: 20 days
Procedure: Eight to ten week-old female Sprague-Dawley rats (Crl:CD(SD)Br) (Charles River Laboratory, St-Constant, Canada) weighing approximately 200-225 g at the start of treatment were used. The animals were acclimatized to the environmental conditions (temperature: 22±3° C.; 10-h light-14-h dark cycles, lights on at 06:00 h) for 1 week before starting the experiment. The animals were housed individually in stainless steel cages of conventional design and were allowed free access to tap water and a high carbohydrate mixed diet composed of (g/100 g): Corn starch, 31.2; Dextrose, 31.2; Casein, 20.0; corn oil, 6.4; dl-Methionine, 0.3; Vitamine mix, 1.0; AIN-76 mineral mix, 4.9 and fiber, 5.0. The experiment was conducted in a Canadian Council on Animal Care approved facility in accordance with the CCAC Guide for Care and Use of Experimental Animals.
On day 1 of the study, the animals of the appropriate groups were bilaterally ovariectomized (OVX) under isoflurane anesthesia. […] The treatment with EM-652.HCl or vehicle alone (0.4% methylcellulose in water) was initiated on day 2 of the study. The compound or vehicle was given once daily by oral gavage in 0.5 ml/rat for 20 days. Body weights and food consumption were recorded every 2 days.
Approximately 24 hours after the last dosing, overnight fasted animals were anesthesized with ketamine-xylazine and blood drawn by cardiac puncture. The blood was collected as well as white and brown adipose tissues.
Body weight, food intake, and body gains in energy, fat, and protein were determined according to Deshaies et al, Am. J. Physiol., 1997; 273, E355-E362 (1997).
Lipoprotein lipase activities were determined according to Deshaies et al, Am. J. Physiol., 1997; 273, E355-E362 (1997).

[4] = OVX rats, EM-652.HCl 0.5 mg/rat oral once daily, E2 implant

Compound | increment of body fat and retroperitoneal adipose tissue by ovariectomy [1] | Fat % [1] [%] | Left retroperitoneal adipose tissue [1] [g] | Right retroperitoneal adipose tissue [1] [g] | decrease of body fat [2] [%] | decrease of retroperitoneal adipose tissue [2] [%] | Retroperitoneal adipose tissue [2] [g] | Fat % [2] [%] | further results
C[C@]12CC[C@H](O)CC1=CC[C@@H]1[C@@H]2CC[C@]2(C)C(=O)CC[C@@H]12 [DHEA, dehydroepiandrosterone] | prevented | 26.8 ± 2.3 | 1.98 ± 0.17 | 2.16 ± 0.25 | 59 | 75 | 0.92 ± 0.17 | 7.8 ± 0.8 | 
CC1=C(c2ccc(O)cc2)[C@H](c2ccc(OCCN3CCCCC3)cc2)Oc2cc(O)ccc21.Cl [EM-652.HCl, (S)-(+)-7-hydroxy-3-(4′-hydroxyphenyl)-4-methyl-2-(4″-(2′″-piperidino-ethoxy)phenyl)-2H-1-benxopyran hydrochloride] | prevented | 27.7 ± 1.8 | 2.19 ± 0.28 | 2.07 ± 0.18 | 46 | 59 | 1.52 ± 0.18 | 10.2 ± 1.2 | Ovx-induced increase in energy intake [3]: completely prevented; Ovx-induced insulin resistance (fasting hyperinsulinemia and hyperglycemia) ([3]; FIG. 5): prevented; decrease in soleus muscle lipoprotein lipase by Ovx ([3]; FIG. 8): prevented; soleus weight increase by Ovx ([3]; FIG. 8): prevented; OVX increase in mass of inguinal and retroperitoneal adipose tissues ([3]; FIGS. 6A and 6C): completely abolished; body weight gain after ovariectomy ([3]; OVX rats, FIG. 2A): completely reversed; protein gain ([3]; OVX rats, FIG. 2B): less accentuated; fat gain after ovariectomy ([3]; OVX rats, FIG. 2C): completely reversed; Cumulative food intake ([3]; OVX rats, FIG. 3): lower than that of intact animals; increase in body energy from proteins following ovariectomy ([3]; OVX rats, FIG. 4A): completely reversed; increase in body energy from fat following ovariectomy ([3]; OVX rats, FIG. 4B): completely reversed; interscapular brown adipose tissue weight, protein content and lipoprotein lipase activity ([3]; OVX rats, FIG. 7): completely reversed; Digestible energy intake [3, 4]: 4479^b kJ; Enegery gain [3, 4]: 278^b kJ; Apparent energy (expenditure) ([3]; OVX rats, calculated from energy intake and energy gain): 4201^b kJ; Food efficiency ([3]; OVX rats, kJ deposited per 100 kJ ingested): 5.9b %
